Data taken from patent US4503244A, “Sebosuppressive topical cosmetic preparations containing alkoxybenzoic acid esters, process for inhibiting sebum production and alkoxybenzoic acid esters” (Henkel Kommanditgesellschaft, priority 1983, dated 1985).

What was measured:
[1] = system: brown skin surface lipid of the rats; test: Antiseborrheic effect: browning of the shaved back of rats, visually assessed (half-back application, 14 days); format: in vivo, male Wistar rats; conditions: for Sebum reduction: (ΔP/Pk)·100
Excerpt: The antiseborrheic effect was closely studied using the animal tests described in the following:
The test animals were male Wistar rats having a body weight of 220 to 230 g at the beginning of the tests. The degree of browning on the shaved back of the rats was visually assessed. Browning is produced by the brown skin surface lipid of the rats. This test is based on the observation that young female rats and also male rats washed with a tenside solution or with a lipid solvent and also male rats systematically treated with estrogen only have the normal light, pink-colored skin after shaving. At the same time, only comparatively very small quantities of lipids can be extracted from the shaved hair.
In order to assess effectiveness, the test substances in solution in alcohol were each brushed onto half the back of 6 rats. The other half was only treated with the solvent minus active substances.
Over the test period of 14 days, the test substances were applied once daily for a total of 9 days. A group of 6 rats which remained completely untreated was used for further control. At the end of the test, the animals were shaved on their back and sides and were visually assessed independently by an examination panel of 6 people under double blind conditions.
The first criterion evaluated was whether the majority of examiners correctly recognized the treated side, differentiation being carried out as follows:
The second criterion evaluated was the difference between the righthand side and the lefthand side, each examiner having to award 1 point per animal on the following basis:
lighter side--0 point and
both sides the same--0.5 point
Significant differences between the untreated and treated sides in the second method of evaluation indicate the local effectiveness of a substance.
The third criterion evaluated was the difference in intensity between the shades of brown using the following scale:
In the third method or evaluation, the points total differences are worked out between the untreated control animals and the treated and untreated sides of the test animals, significant differences between the control animals and the treated side of the test animals again indicating the effectiveness of a substance.
At the same time, there is generally also a distinct difference between the untreated and treated sides of the groups of test animals. However, this difference is not always as clear as that between the control animals and the treated sides, for which there may be various reasons, including for example mechanical transfer of substance from one side to the other or solvent influence.
The following scheme was used for differentiating the effects according to evaluation methods 2 and 3:
Percentage sebum reduction
The sebum reduction is calculated from the points difference by working out the quotient between the points difference ΔP and the number of points for the control group Pk and expressing the value obtained in percent.
Sebum reduction=(ΔP/Pk)·100[%]

[2] = system: seborrhea / production of sebum; conditions: background art; cited from earlier work

What does the source list for `CCCCCCCCCCOc1ccc(C(=O)OCCOC)cc1` [A, p-decyloxybenzoic acid 2-methoxy-ethyl ester]?
Evaluation method 1 (percentage of examiners noticing an effect) ([1]; Conc. 0.1% in alcohol): ++ (100%); Evaluation method 2 (points difference between treated and untreated side) ([1]; Conc. 0.1% in alcohol): ++ (very large (≥99.9% probability)); Evaluation method 3 (difference in intensity between shades of brown vs untreated control animals) ([1]; Conc. 0.1% in alcohol): ++ (very large (≥99.9% probability)); Sebum reduction ([1]; Conc. 0.1% in alcohol): 69%; Evaluation method 1 (percentage of examiners noticing an effect) ([1]; Conc. 1.0% in alcohol): ++ (100%); Evaluation method 2 (points difference between treated and untreated side) ([1]; Conc. 1.0% in alcohol): ++ (very large (≥99.9% probability)); Evaluation method 3 (difference in intensity between shades of brown vs untreated control animals) ([1]; Conc. 1.0% in alcohol): ++ (very large (≥99.9% probability)); Sebum reduction ([1]; Conc. 1.0% in alcohol): 100%

Which results are given for `CCCCCCCCCCOc1ccc(C(=O)OCCOCC)cc1` [B, p-decyloxybenzoic acid 2-ethoxy-ethyl ester]?
Evaluation method 1 (percentage of examiners noticing an effect) ([1]; Conc. 0.1% in alcohol): ++ (100%); Evaluation method 2 (points difference between treated and untreated side) ([1]; Conc. 0.1% in alcohol): ++ (very large (≥99.9% probability)); Evaluation method 3 (difference in intensity between shades of brown vs untreated control animals) ([1]; Conc. 0.1% in alcohol): ++ (very large (≥99.9% probability)); Sebum reduction ([1]; Conc. 0.1% in alcohol): 30%; Evaluation method 1 (percentage of examiners noticing an effect) ([1]; Conc. 1.0% in alcohol): ++ (100%); Evaluation method 2 (points difference between treated and untreated side) ([1]; Conc. 1.0% in alcohol): ++ (very large (≥99.9% probability)); Evaluation method 3 (difference in intensity between shades of brown vs untreated control animals) ([1]; Conc. 1.0% in alcohol): ++ (very large (≥99.9% probability)); Sebum reduction ([1]; Conc. 1.0% in alcohol): 93%

Which results are given for `CCCCCCCCCCOc1ccc(C(=O)OCCOCCOC)cc1` [C, p-decyloxybenzoic acid 2-(2-methoxyethoxy)-ethyl ester]?
Evaluation method 1 (percentage of examiners noticing an effect) ([1]; Conc. 0.1% in alcohol): ++ (100%); Evaluation method 2 (points difference between treated and untreated side) ([1]; Conc. 0.1% in alcohol): ++ (very large (≥99.9% probability)); Evaluation method 3 (difference in intensity between shades of brown vs untreated control animals) ([1]; Conc. 0.1% in alcohol): ++ (very large (≥99.9% probability)); Sebum reduction ([1]; Conc. 0.1% in alcohol): 26%; Evaluation method 1 (percentage of examiners noticing an effect) ([1]; Conc. 1.0% in alcohol): ++ (100%); Evaluation method 2 (points difference between treated and untreated side) ([1]; Conc. 1.0% in alcohol): ++ (very large (≥99.9% probability)); Evaluation method 3 (difference in intensity between shades of brown vs untreated control animals) ([1]; Conc. 1.0% in alcohol): ++ (very large (≥99.9% probability)); Sebum reduction ([1]; Conc. 1.0% in alcohol): 100%

With `CCCCCCCCCCOc1ccc(C(=O)OCCO)cc1` [D, p-decyloxybenzoic acid 2-hydroxy-ethyl ester] as the molecule, how does the “Evaluation method 1 (percentage of examiners noticing an effect)” value ([1]; Conc. 1.0% in alcohol) read?
Its value is “++ (100%)”.

What about the “Evaluation method 2 (points difference between treated and untreated side)” value ([1]; Conc. 1.0% in alcohol) of the same molecule?
The value was “++ (very large (≥99.9% probability))”.

What about the “Evaluation method 3 (difference in intensity between shades of brown vs untreated control animals)” value ([1]; Conc. 1.0% in alcohol) of the same molecule?
Its value is “++ (very large (≥99.9% probability))”.

What about the Sebum reduction ([1]; Conc. 1.0% in alcohol) of the same molecule?
Its Sebum reduction is 98%.

Which results are given for `CCCCCCCCCCOc1ccc(C(=O)OCCN(CC)CC)cc1` [E, p-decyloxybenzoic acid 2-diethylaminoethyl ester]?
Evaluation method 1 (percentage of examiners noticing an effect) ([1]; Conc. 0.1% in alcohol): ++ (100%); Evaluation method 2 (points difference between treated and untreated side) ([1]; Conc. 0.1% in alcohol): ++ (very large (≥99.9% probability)); Evaluation method 3 (difference in intensity between shades of brown vs untreated control animals) ([1]; Conc. 0.1% in alcohol): ++ (very large (≥99.9% probability)); Sebum reduction ([1]; Conc. 0.1% in alcohol): 80%; Evaluation method 1 (percentage of examiners noticing an effect) ([1]; Conc. 1.0% in alcohol): ++ (100%); Evaluation method 2 (points difference between treated and untreated side) ([1]; Conc. 1.0% in alcohol): ++ (very large (≥99.9% probability)); Evaluation method 3 (difference in intensity between shades of brown vs untreated control animals) ([1]; Conc. 1.0% in alcohol): ++ (very large (≥99.9% probability)); Sebum reduction ([1]; Conc. 1.0% in alcohol): 90%

Which “Evaluation method 1 (percentage of examiners noticing an effect)” value ([1]; Conc. 0.2% in alcohol) does the source give for `CCCCCCCCCCCCOc1ccc(C(=O)OCCOC)cc1` [F, p-dodecyloxybenzoic acid 2-methoxy-ethyl ester] here?
The value was “++ (100%)”.

What about the “Evaluation method 2 (points difference between treated and untreated side)” value ([1]; Conc. 0.2% in alcohol) of the same molecule?
Its value is “++ (very large (≥99.9% probability))”.

And the “Evaluation method 3 (difference in intensity between shades of brown vs untreated control animals)” value ([1]; Conc. 0.2% in alcohol)?
The value was “++ (very large (≥99.9% probability))”.

What about the Sebum reduction ([1]; Conc. 0.2% in alcohol) of the same molecule?
The Sebum reduction was 92%.

What about the “Evaluation method 1 (percentage of examiners noticing an effect)” value ([1]; Conc. 1.0% in alcohol) of the same molecule?
Its value is “++ (100%)”.

And the “Evaluation method 2 (points difference between treated and untreated side)” value ([1]; Conc. 1.0% in alcohol)?
The value was “++ (very large (≥99.9% probability))”.

What about the “Evaluation method 3 (difference in intensity between shades of brown vs untreated control animals)” value ([1]; Conc. 1.0% in alcohol) of the same molecule?
The value was “++ (very large (≥99.9% probability))”.

What about the Sebum reduction ([1]; Conc. 1.0% in alcohol) of the same molecule?
The Sebum reduction was 91%.

What does the source list for `CCCCCCCCCCOc1ccc(C(=O)OCC(=O)OC)cc1` [G, p-decyloxybenzoyloxy-acetic acid methyl ester]?
Evaluation method 1 (percentage of examiners noticing an effect) ([1]; Conc. 0.5% in alcohol): ++ (100%); Evaluation method 2 (points difference between treated and untreated side) ([1]; Conc. 0.5% in alcohol): ++ (very large (≥99.9% probability)); Evaluation method 3 (difference in intensity between shades of brown vs untreated control animals) ([1]; Conc. 0.5% in alcohol): ++ (very large (≥99.9% probability)); Sebum reduction ([1]; Conc. 0.5% in alcohol): 82%

Which “sebosuppressive / antiseborrheic effect of known substances” value [2] does the source give for `CCN(CC)C(=O)c1cccc(C)c1` [N,N-diethyl-m-toluamide] here?
The value was “neither N,N-diethyl-m-toluamide nor phenylpentadienoic acid show, however, fully satisfactory sebosuppressive properties”.

With `O=C(O)C=CC=Cc1ccccc1` [phenylpentadienoic acid] as the molecule, how does the “sebosuppressive / antiseborrheic effect of known substances” value [2] read?
Its value is “neither N,N-diethyl-m-toluamide nor phenylpentadienoic acid show, however, fully satisfactory sebosuppressive properties”.
